Tests used:
[1] = molecular target: T1, Alpha-1B adrenergic receptor (Rattus norvegicus, UniProt P15823); test: DRUGMATRIX: Alpha-1B adrenergic receptor radioligand binding (ligand: prazosin); assay type: cell membranes, Wistar, Liver, Membrane; details: Not Active = under 50% inhibition at 10 µM
T1 sequence (P15823 whole entry): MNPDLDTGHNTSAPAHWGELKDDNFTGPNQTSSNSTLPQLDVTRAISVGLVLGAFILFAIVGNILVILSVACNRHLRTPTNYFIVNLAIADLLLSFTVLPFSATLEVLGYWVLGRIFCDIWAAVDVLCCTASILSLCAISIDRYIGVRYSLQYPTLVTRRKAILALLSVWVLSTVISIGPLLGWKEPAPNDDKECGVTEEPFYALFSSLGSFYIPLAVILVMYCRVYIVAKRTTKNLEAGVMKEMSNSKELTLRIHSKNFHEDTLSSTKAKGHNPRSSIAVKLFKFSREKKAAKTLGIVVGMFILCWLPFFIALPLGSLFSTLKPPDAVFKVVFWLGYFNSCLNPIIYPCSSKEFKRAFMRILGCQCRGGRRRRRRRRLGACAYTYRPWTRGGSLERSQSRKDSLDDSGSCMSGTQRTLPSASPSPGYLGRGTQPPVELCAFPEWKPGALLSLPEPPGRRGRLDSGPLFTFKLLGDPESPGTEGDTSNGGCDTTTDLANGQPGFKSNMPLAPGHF

[2] = DRUGMATRIX: beta-Lactamase enzyme inhibition (substrate: Nitrocefin); parameters: species or system Bacillus cereus; details: Not Active = under 50% inhibition at 10 µM
[3] = molecular target: Vasopressin V1a receptor (Homo sapiens, UniProt P37288); assay type: cell membranes, Membrane; details: hek293; note: in other assays of this panel Not Active means under 50% inhibition at 10 µM
Sequence of Vasopressin V1a receptor (P37288 whole entry): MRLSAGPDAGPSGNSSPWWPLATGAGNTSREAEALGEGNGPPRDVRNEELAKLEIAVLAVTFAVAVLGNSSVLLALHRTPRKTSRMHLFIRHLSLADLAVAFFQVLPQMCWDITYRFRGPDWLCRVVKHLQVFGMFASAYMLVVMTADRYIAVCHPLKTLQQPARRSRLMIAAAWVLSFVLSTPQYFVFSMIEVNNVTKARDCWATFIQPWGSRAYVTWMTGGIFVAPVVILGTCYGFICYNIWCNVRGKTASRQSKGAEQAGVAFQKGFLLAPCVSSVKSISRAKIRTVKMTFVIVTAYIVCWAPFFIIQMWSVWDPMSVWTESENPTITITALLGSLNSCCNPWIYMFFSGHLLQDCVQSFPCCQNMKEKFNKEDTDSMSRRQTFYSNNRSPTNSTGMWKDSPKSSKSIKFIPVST

[4] = molecular target: Sodium-dependent dopamine transporter (Homo sapiens, UniProt Q01959); test: DRUGMATRIX: Dopamine Transporter radioligand binding (ligand: [125I] RTI-55); assay type: cell membranes, CHO-K1, Membrane; details: cho-k1; Not Active = under 50% inhibition at 10 µM
Sequence of Sodium-dependent dopamine transporter (Q01959 whole entry): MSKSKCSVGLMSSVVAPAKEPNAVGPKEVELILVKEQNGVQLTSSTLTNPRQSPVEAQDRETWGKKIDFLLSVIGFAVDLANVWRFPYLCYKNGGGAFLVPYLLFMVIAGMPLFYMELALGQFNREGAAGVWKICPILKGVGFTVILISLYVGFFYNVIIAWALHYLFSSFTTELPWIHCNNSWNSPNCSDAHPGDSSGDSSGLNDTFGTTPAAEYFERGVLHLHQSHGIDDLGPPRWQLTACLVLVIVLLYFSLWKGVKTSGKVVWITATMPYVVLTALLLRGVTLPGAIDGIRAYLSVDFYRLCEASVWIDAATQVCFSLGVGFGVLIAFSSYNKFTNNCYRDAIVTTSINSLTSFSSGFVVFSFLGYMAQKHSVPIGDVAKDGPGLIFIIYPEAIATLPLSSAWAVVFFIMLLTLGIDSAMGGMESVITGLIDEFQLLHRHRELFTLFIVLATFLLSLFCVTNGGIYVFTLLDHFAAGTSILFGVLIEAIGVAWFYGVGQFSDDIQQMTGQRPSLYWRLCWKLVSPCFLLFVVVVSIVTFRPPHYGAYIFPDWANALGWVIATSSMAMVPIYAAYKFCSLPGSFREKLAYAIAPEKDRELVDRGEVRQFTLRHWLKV

[5] = molecular target: T2, Amine oxidase [flavin-containing] A (Homo sapiens, UniProt P21397); test: DRUGMATRIX: Monoamine Oxidase MAO-A enzyme inhibition (substrate: Kynuramine); parameters: species or system BTI-TN-5B1-4; details: Not Active = under 50% inhibition at 10 µM
T2 sequence (P21397 whole entry): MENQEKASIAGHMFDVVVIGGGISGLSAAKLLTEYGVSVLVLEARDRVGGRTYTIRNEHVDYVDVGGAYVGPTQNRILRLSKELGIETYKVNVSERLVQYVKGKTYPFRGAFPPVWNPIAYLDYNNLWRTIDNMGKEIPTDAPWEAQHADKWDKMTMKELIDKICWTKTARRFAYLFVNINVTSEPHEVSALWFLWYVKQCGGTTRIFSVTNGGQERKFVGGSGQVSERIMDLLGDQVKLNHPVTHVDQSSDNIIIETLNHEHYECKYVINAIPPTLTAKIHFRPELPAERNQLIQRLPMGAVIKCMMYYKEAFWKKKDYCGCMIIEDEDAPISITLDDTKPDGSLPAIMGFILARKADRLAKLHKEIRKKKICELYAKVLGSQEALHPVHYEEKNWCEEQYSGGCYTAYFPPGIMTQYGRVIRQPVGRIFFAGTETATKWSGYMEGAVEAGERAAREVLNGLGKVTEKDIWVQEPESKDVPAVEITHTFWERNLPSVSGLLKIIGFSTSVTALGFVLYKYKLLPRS

[6] = molecular target: T3, Neuropeptide Y receptor type 1 (Homo sapiens, UniProt P25929); assay type: cell membranes, Membrane; details: sk-n-mc; note: in other assays of this panel Not Active means under 50% inhibition at 10 µM
T3 sequence (P25929 whole entry): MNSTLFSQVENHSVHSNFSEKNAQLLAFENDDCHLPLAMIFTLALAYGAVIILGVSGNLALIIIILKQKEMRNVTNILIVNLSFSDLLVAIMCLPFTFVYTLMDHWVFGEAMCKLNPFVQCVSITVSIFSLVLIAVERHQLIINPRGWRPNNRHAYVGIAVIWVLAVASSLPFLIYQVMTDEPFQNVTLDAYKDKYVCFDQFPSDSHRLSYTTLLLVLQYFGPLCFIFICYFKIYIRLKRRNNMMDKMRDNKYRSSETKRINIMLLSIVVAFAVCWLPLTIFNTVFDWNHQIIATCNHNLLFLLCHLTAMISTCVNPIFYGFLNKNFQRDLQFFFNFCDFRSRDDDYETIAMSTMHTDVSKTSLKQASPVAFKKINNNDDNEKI

[7] = DRUGMATRIX: Phorbol Ester radioligand binding (ligand: [3H] PDBu); assay type: cell membranes, Mus musculus, ICR, Brain, Membrane; details: Not Active = under 50% inhibition at 10 µM
[8] = molecular target: T4, Adenosine receptor A1 (Homo sapiens, UniProt P30542); assay type: cell membranes, Membrane; details: cho;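 note: radioligand binding assay at the adenosine A1 receptor, with DPCPX serving as the labelled ligand; in other assays of this panel Not Active means under 50% inhibition at 10 µM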
T4 sequence (P30542 whole entry): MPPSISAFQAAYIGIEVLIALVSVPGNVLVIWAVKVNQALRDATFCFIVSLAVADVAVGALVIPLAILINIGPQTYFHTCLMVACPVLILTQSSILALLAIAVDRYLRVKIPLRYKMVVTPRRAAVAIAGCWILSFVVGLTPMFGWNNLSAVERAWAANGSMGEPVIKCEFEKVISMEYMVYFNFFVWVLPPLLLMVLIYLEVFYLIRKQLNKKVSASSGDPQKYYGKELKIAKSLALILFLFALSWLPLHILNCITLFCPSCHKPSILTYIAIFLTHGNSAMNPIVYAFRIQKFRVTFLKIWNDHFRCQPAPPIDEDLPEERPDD

| Compound | IC50 [1] | IC50 [2] | Ki [2] | IC50 [3] | IC50 [4] | IC50 ([5]; bti-tn-5b1-4) | IC50 [6] | IC50 [7] | Ki [7] | IC50 [8] | IC50 ([5]; read-out: IC50) [nM] |
| --- | --- | --- | --- | --- | --- | --- | --- | --- | --- | --- | --- |
| N=C(Nc1ccccc1)Nc1ccccc1 | Not Active | Not Active | Not Active | Not Active | Not Active | Not Active | Not Active | Not Active | Not Active | Not Active | – |
| ClC(Cl)Cl [CHLOROFORM] | Not Active | Not Active | Not Active | Not Active | Not Active | Not Active | Not Active | Not Active | Not Active | Not Active | – |
| N=C(N)NC(=O)c1nc(Cl)c(N)nc1N [AMILORIDE] | Not Active | Not Active | Not Active | Not Active | Not Active | – | Not Active | Not Active | Not Active | Not Active | 3910 |
| CCN1CC(CCN2CCOCC2)C(c2ccccc2)(c2ccccc2)C1=O (stereo not given) [DOXAPRAM] | Not Active | Not Active | Not Active | Not Active | Not Active | Not Active | Not Active | Not Active | Not Active | Not Active | – |
| Cc1ccc(S(=O)(=O)NC(=O)NN2CC3CCCC3C2)cc1 (stereo not given) [GLICLAZIDE] | Not Active | Not Active | Not Active | Not Active | Not Active | Not Active | Not Active | Not Active | Not Active | Not Active | – |
| COc1cccc2c1C(=O)c1c(O)c3c(c(O)c1C2=O)C[C@@](O)(C(=O)CO)C[C@@H]3O[C@H]1C[C@H](N)[C@H](O)[C@H](C)O1 [DOXORUBICIN] | Not Active | Not Active | Not Active | Not Active | Not Active | Not Active | Not Active | Not Active | Not Active | Not Active | – |
| Cn1c(=O)c2c(ncn2CC2OCCO2)n(C)c1=O [DOXOFYLLINE] | Not Active | Not Active | Not Active | Not Active | Not Active | Not Active | Not Active | Not Active | Not Active | Not Active | – |
| Cc1cc2cc3c(C)cc(=O)oc3c(C)c2o1 [TRIOXSALEN] | Not Active | Not Active | Not Active | Not Active | Not Active | – | Not Active | Not Active | Not Active | Not Active | 831 |
| Cc1ncc([N+](=O)[O-])n1CCO [METRONIDAZOLE] | Not Active | Not Active | Not Active | Not Active | Not Active | Not Active | Not Active | Not Active | Not Active | Not Active | – |
| OC(CCN1CCCCC1)(c1ccccc1)C1CCCCC1 (stereo not given) [TRIHEXYPHENIDYL] | Not Active | Not Active | Not Active | Not Active | Not Active | Not Active | Not Active | Not Active | Not Active | Not Active | – |
| O=C(C1CCCCC1)N1CC(=O)N2CCc3ccccc3C2C1 (stereo not given) [PRAZIQUANTEL] | Not Active | Not Active | Not Active | Not Active | Not Active | Not Active | Not Active | Not Active | Not Active | Not Active | – |
| C=C1CC[C@H](O)C/C1=C/C=C1\CCC[C@]2(C)[C@@H]([C@H](C)CCCC(C)C)CC[C@@H]12 [CHOLECALCIFEROL] | Not Active | Not Active | Not Active | Not Active | Not Active | Not Active | Not Active | Not Active | Not Active | Not Active | – |
| CC(=O)OCC(=O)[C@@]1(O)CC[C@H]2[C@@H]3CCC4=CC(=O)CC[C@]4(C)[C@H]3C(=O)C[C@@]21C [CORTISONE ACETATE] | Not Active | Not Active | Not Active | Not Active | Not Active | Not Active | Not Active | Not Active | Not Active | Not Active | – |
| COc1ccc2[nH]c([S+]([O-])Cc3ncc(C)c(OC)c3C)nc2c1 (stereo not given) [OMEPRAZOLE] | Not Active | Not Active | Not Active | Not Active | Not Active | Not Active | Not Active | Not Active | Not Active | Not Active | – |
| C[C@@]12C(=O)OC(=O)[C@]1(C)[C@H]1CC[C@@H]2O1 [CANTHARIDIN] | Not Active | Not Active | Not Active | Not Active | Not Active | Not Active | Not Active | Not Active | Not Active | Not Active | – |
| Nc1c(CC(=O)O)cccc1C(=O)c1ccc(Br)cc1 [BROMFENAC] | Not Active | Not Active | Not Active | Not Active | Not Active | Not Active | Not Active | Not Active | Not Active | Not Active | – |
| C[C@H]1O[C@@H](O[C@H]2[C@@H](O)C[C@H](O[C@H]3[C@@H](O)C[C@H](O[C@H]4CC[C@@]5(C)[C@H](CC[C@@H]6[C@@H]5CC[C@]5(C)[C@@H](C7=CC(=O)OC7)CC[C@]65O)C4)O[C@@H]3C)O[C@@H]2C)C[C@H](O)[C@@H]1O [DIGITOXIN] | Not Active | Not Active | Not Active | Not Active | Not Active | Not Active | Not Active | Not Active | Not Active | Not Active | – |
| C[N+](C)(C)CCO.[Cl-] [CHOLINE CHLORIDE] | Not Active | Not Active | Not Active | Not Active | Not Active | Not Active | Not Active | Not Active | Not Active | Not Active | – |
| O=S(=O)([O-])CCS.[Na+] [MESNA] | Not Active | Not Active | Not Active | Not Active | Not Active | Not Active | Not Active | Not Active | Not Active | Not Active | – |
| O=C(O)Cc1ccccc1Nc1c(Cl)cccc1Cl [DICLOFENAC] | Not Active | Not Active | Not Active | Not Active | Not Active | Not Active | Not Active | Not Active | Not Active | Not Active | – |
